# In the RepoRT retention time repository:
# Assay: RP, Waters ACQUITY UPLC BEH C18, 50 × 2.1 mm, 1.7 µm, 40 °C, 0.6 mL/min, estimated dead time 0.18 min; A: water + 0.1% formic acid, pH 3; B: acetonitrile + 0.1% formic acid, pH 3; gradient (min/%B) 0/5 7/100 8/100
# Conditions: stereoisomer not certain
row,LC retention time [min],Structure (SMILES)
1,3.41,C=C(C(=O)C(O)C(C)C1C(OC(C)=O)CC2(C)C3CC(O)C4C(C)C(=O)C=CC45CC35CCC12C)C(C)CO (stereo unspecified)
2,1.79,CC[C@H]1NC2C[C@@]3(C(=O)N(OC)c4ccccc43)C3CC1C2CO3 (stereo partly specified)
3,2.48,COc1c(O)ccc2c1C(OC)N(C)c1c-2ccc2cc3c(cc12)OCO3 (stereo unspecified)
4,5.61,CC1CCC2(C)C(CCC(O)C2(C)O)C1(C)CC(O)c1ccoc1 (stereo unspecified)
5,2.35,CC1CC(O)C2(C)C(CCC(O)C2(C)O)C1(C)CC(=O)c1ccoc1 (stereo unspecified)
6,5.19,CC(C)=CC1CC(C2CCC3(C)C4=CCC5C(C)(C)C(O)CCC5(C)C4CC(C=O)=C23)C(O)O1 (stereo unspecified)
7,3.98,CC(C)=CCc1c(O)cc2oc(-c3ccc(O)cc3)c(O)c(=O)c2c1O
8,5.96,CCCCCCCCCCCC(=O)OC12CC(C)C3(O)C(C4OC4(CO)C(O)C4(O)C(=O)C(C)=CC43)C1C2(C)C (stereo unspecified)
9,2.2,COc1ccc(-c2oc3cc(O)c(OC)c(O)c3c(=O)c2OC)cc1O
10,3.14,CC(=O)OC(C)(C)C=CC(=O)C(C)(O)C1C(O)CC2(C)C3CC=C4C(=COC(=O)C4(C)C)C3(C)C(=O)CC12C (stereo unspecified)
11,4.26,C=C1C(=O)O[C@@H]2C[C@@]3(C)CCC[C@H](C)C3=C[C@H]12
12,1.4,CN1CCc2ccc(O)c3c2C1Cc1cc2c(cc1O3)OCO2 (stereo unspecified)
13,1.4,C/C=C1/CN(C)[C@@H]2Cc3c([nH]c4ccccc34)C(=O)C[C@H]1C2C(=O)OC (stereo partly specified)
14,1.08,COC1C2(O)COC3=CC(=O)C=CC31c1cc(O)c(O)cc1C2 (stereo unspecified)
15,2.84,CC(=O)OC/C=C(\C)C(=O)OC1C(=O)C(CO)=CC(OC(C)=O)C1C(C)C (stereo unspecified)
16,1.77,Oc1ccc(C2c3c(O)cc(O)cc3C3C(c4ccc(O)cc4)c4c(O)cc(O)cc4C23)cc1 (stereo unspecified)
17,1.59,COc1cc2c3cc1Oc1c(cccc1OC)CC1c4c(cc(O)c(OC)c4Oc4cccc(c4)CC3N(C)CC2)CCN1C (stereo unspecified)
18,3.04,C=C1CCC2(OC1)OC1CC3C4C(O)C(=O)C5(O)C(O)C(O)C(O)C(O)C5(C)C4CCC3(C)C1C2C (stereo unspecified)
19,6.36,CCC(C)C(=O)C1=C(O)C2(CC=C(C)C)CC(CC=C(C)C)C(C)(C)C(C(CC(=O)O)c3ccccc3)=C2OC1=O (stereo unspecified)
20,3.16,CC1(C)CCC[C@]2(COC(=O)/C=C/c3ccc(O)c(O)c3)C1CC[C@@]13C[C@@H](CCC12)[C@@](O)(CO)C3 (stereo partly specified)
21,1.54,O=C1c2c(O)cc(O)c(C3C(=O)c4c(O)cc(O)cc4OC3c3ccc(O)cc3)c2OC(c2ccc(O)cc2)C1O (stereo unspecified)

row,LC retention time [min],Structure (SMILES)
1,1.55,COC1=C(C)C(=O)O/C1=C1\OC2CCCN3C(C4CC(C)C(=O)O4)CCC3C2C1C (stereo unspecified)
2,4.97,COc1cc(/C=C/C(=O)OC2CC3(C)CCC2C3(C)C)ccc1O (stereo unspecified)
3,2.78,O=C1CC(c2ccc(O)cc2)Oc2cc3c(c(O)c21)C(C(=O)c1ccc(O)cc1O)C(c1ccc(O)cc1)O3 (stereo unspecified)
4,4.03,CC(C)=CC1CC(C2CCC3(C)C4=CCC5C(C)(C)C(=O)CCC5(C)C4CC(C=O)=C23)C(O)O1 (stereo unspecified)
5,5.23,C=C(C(=O)CC(C)C1CCC2(C)C3CCC4C(C)(C(=O)OC5OC(C)C(O)C(O)C5O)C(O)CCC45CC35CCC12C)C(C)C (stereo unspecified)
6,0.226,"Cn1c(N)nc2c(ncn2C)c1=O [2-amino-1,9-dimethyl-6,9-dihydro-1H-purin-6-one]"
7,2.36,O=C1CC(c2ccc(O)cc2)Oc2c1c(O)cc(O)c2C1C(=O)c2c(O)cc(O)cc2OC1c1ccc(O)cc1 (stereo unspecified)
8,1.6,COc1cc2c3c(c1OC)Oc1ccc(cc1)CC1c4c(cc(OC)c5c4Oc4ccc(cc4CO5)CC3N(C)CC2)CCN1C (stereo unspecified)
9,5.49,CCC(O)c1cc(=O)oc2c(C(=O)CC(C)C)c(O)c(CC=C(C)C)c(O)c12 (stereo unspecified)
10,5.37,COc1cc(/C=C/c2ccc(OCC=C(C)C)cc2)cc(OC)c1
11,4.07,C=C1COC(=O)C12C[C@@]1(C)C([C@@H](OC(=O)/C=C/SC)CC[C@@H]1C)[C@H]2OC(C)=O (stereo partly specified)
12,3.06,CC(=O)OC(C)(C)CCC(=O)[C@](C)(O)C1[C@H](O)C[C@@]2(C)C3CC=C4C(C[C@H](O)[C@@H](O)C4(C)C)[C@]3(C)C(=O)C[C@]12C (stereo partly specified)
13,4.68,"CCCCCCCCC/C=C\CCCC[C@@H]1CCC[C@@H](C)N1 [(2R,6R)-2-methyl-6-[(5Z)-pentadec-5-en-1-yl]piperidine]"
14,3.41,CC1CCC2(C)C(CCC3OC32C)C1(C)CC(=O)c1ccoc1 (stereo unspecified)
15,4.1,CC1=CC2CC(C)C(CO)/C=C(\C)C(O)C(=O)/C=C(\C)CCC12 (stereo unspecified)
16,4.6,C=C(C(=O)C(O)C(C)C1C(OC(C)=O)CC2(C)C3CCC4C(C)C(=O)CCC45CC35CCC12C)C(C)CO (stereo unspecified)
17,2.17,COC(=O)C1=C2CCC3=C2C2(C1)C1(C)CCC4C(C)CN(CC1CC3)C42O (stereo unspecified)
18,0.975,COc1cc(CC[N+](C)(C)C)c2ccc3cc4c(c5c3c2c1OC5)OCO4
19,5.22,C/C(=C\C1CC(C2CCC34CC23C=CC2C3(C)CC=C5CC(c6ccccc6)OCC5(C)C3CC(O)C24C)C(=O)O1)CO (stereo unspecified)
20,0.702,C=C1[C@@H](O)C[C@H]2C(C)(C)C[C@H](O)C[C@]2(C)[C@H]1CC1C(C)=CCC2C(=O)C(OC)=CC(=O)C21c1cc(=O)c2c(O)cc(O)cc2o1 (stereo partly specified)

row,Structure (SMILES),LC retention time [min]
1,COc1cc2c(cc1O)CC1NCCc3cc(OC)c(OC)c-2c31 (stereo unspecified),1.58
2,C[C@@H]1CC2(NCCS2)[C@]2(O)OC3C[C@@]4(C=O)C(CCC5C4CC[C@]4(C)C(C6=CC(=O)OC6)CC[C@]54O)CC3OC2O1 (stereo partly specified),0.611
3,Cc1ccc2c(c1)C1(C(C)C)CCC2(C)OO1 (stereo unspecified),4.34
4,COc1cc2c3c(c1O)Oc1ccc(cc1)CC1c4c(cc(OC)c(O)c4Oc4ccc(cc4)CC3N(C)CC2)CCN1C (stereo unspecified),1.44
5,COC(=O)C1=CC(O)C23OOC1CC2(C)CCC3C(C)C (stereo unspecified),3.72
6,C=C[C@H]1CN2CCC3c4ccccc4NC3[C@H]2C[C@@H]1/C(=C\OC)C(=O)OC (stereo partly specified),2.64
7,CC(C)(O)/C=C/C(=O)[C@](C)(O)[C@H]1[C@H](O)C[C@@]2(C)C3CC=C4C(CC(=O)C(O)C4(C)C)[C@]3(C)C(=O)C[C@]12C (stereo partly specified),2.9
8,CCN1CC2(COC(=O)c3ccccc3NC(=O)C(C)CC(=O)O)CCC(OC)C34C5CC6C(OC)CC(O)(C5C6OC)C(O)(C(OC)C23)C14 (stereo unspecified),2.37
9,CC1CC2CC(=O)C3CCCN4CCCC2C34C1 (stereo unspecified),1.06
10,CC1=C(O)C(=O)C=C2C1=CC=C1[C@@]2(C)CC[C@@]2(C)[C@@H]3C[C@](C)(C(=O)O)CC[C@]3(C)CC[C@]12C,5.33
11,CCN1CC2(COC(=O)c3ccccc3N)CCC(OC)C34C5CC6C(OC)CC(O)(C5C6OC)C(O)(C(OC)C23)C14 (stereo unspecified),2.4
12,CC[C@H]1C[C@H]2CN3CCc4c([nH]c5ccc(OC)cc45)[C@](C(=O)OC)(C2)C13,2.02
13,CC[C@@H]1CN(C)C[C@@]2(C(=O)OC)Cc3c([nH]c4ccccc34)C(=O)C[C@@H]12,1.76
14,"CCCCCCCCCCCCC[C@@H]1CCC[C@@H](C)N1 [(2R,6R)-2-methyl-6-tridecylpiperidine]",4.58
15,C[C@@H]1CC2(N=CCS2)[C@]2(O)OC3C[C@@]4(C=O)C(CCC5C4CC[C@]4(C)C(C6=CC(=O)OC6)CC[C@]54O)CC3OC2O1 (stereo partly specified),0.662
